Among the data in patent publication US8039506B2, “Bicyclic lactam factor VIIa inhibitors useful as anticoagulants” (Bristol-Myers Squibb Company, priority 2006, dated 2011) are Ki values, retold here.

SMILES strings stand for the structures. Values joined by “and” are separate entries in the source; they are usually repeats but may differ in a detail not shown here. Equal values may be shown once. Bounds are passed on as bounds.

This assay concerns the target T1, human Factor VIIa (Homo sapiens, UniProt P08709).
T1 construct: with about 1% of the total amount in the proteolytically active form factor VIIa; purchased Haematologic Technologies (plasma-purified) or Novo Nordisk (recombinant)
Briefly: Factor VIIa assay (hydrolysis of chromogenic substrate, Ki). The format is biochemical. The settings on record: several values in one cell = repeat determinations.

T1 sequence (P08709 213-466 limits assumed): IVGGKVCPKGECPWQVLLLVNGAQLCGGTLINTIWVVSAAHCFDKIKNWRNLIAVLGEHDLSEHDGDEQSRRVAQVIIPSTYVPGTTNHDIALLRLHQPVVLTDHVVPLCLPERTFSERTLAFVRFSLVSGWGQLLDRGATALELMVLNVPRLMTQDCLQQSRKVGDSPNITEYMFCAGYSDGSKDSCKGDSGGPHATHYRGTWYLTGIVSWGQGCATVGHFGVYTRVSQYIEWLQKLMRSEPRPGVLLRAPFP
T1 sequence (P08709 61-212 limits assumed): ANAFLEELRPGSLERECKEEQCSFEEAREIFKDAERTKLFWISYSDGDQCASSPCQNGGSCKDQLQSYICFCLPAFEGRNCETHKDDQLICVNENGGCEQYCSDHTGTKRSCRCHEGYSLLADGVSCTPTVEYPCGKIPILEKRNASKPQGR
T1 sequence (P13726 33-251 partner limits assumed): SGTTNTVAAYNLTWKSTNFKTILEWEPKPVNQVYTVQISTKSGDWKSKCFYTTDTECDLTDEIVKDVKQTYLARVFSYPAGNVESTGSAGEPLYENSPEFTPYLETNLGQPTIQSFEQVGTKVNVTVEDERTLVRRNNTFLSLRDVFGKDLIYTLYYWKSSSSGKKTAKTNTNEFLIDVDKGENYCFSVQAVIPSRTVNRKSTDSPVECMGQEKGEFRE

As for `COC(=O)Nc1ccc(S(=O)(=O)C(C)C)c([C@H]2CCCN2C(=O)C(Nc2ccc(F)c3c2CNC3=O)c2ccc(OC)c(OC)c2)c1` (single isomer, unassigned) [Example 6], the inhibitory constant (Ki) – broadly, the equilibrium dissociation constant of an inhibitor or competing ligand from its target – is above 13000 nM. `CC[C@H]1CNC(=O)c2cc(NC(C(=O)N3CCC[C@@H]3c3cc(NC(=O)OC)ccc3S(=O)(=O)C(C)C)c3ccc(OC)c(OC)c3)ccc21` (single isomer, unassigned) [Example 18]: the inhibitory constant (Ki) is 41 nM and 88 nM. The same measure for `COC(=O)Nc1ccc(S(=O)(=O)C2CC2)c([C@H]2CCCN2C(=O)[C@H](Nc2ccc3nc[nH]c(=O)c3c2)c2ccc(F)c(OC)c2)c1` (single isomer, unassigned) [Example 22]: < 5 nM and 3.5 nM; for `COc1cc([C@@H](Nc2ccc3c(c2)C(=O)NC3)C(=O)N2CC[C@H](C(=O)O)[C@@H]2c2ccccc2S(=O)(=O)C2CC2)ccc1F` [Example 28, (2R,3S)-2-(2-(cyclopropylsulfonyl)phenyl)-1-((R)-2-(4-fluoro-3-methoxyphenyl)-2-(3-oxoisoindolin-5-ylamino)acetyl)pyrrolidine-3-carboxylic acid]: 60 nM.
